# Experimental data: patent US20130281313A1, “PROGNOSTIC AND/OR PREDICTIVE BIOMARKERS AND BIOLOGICAL APPLICATIONS THEREOF” (INSTITUT GUSTAVE ROUSSY, priority 2010, published 2013)
# Test system: A549 cells
# Assay: Transcriptome studies (mRNA microarrays)
# Format: cell-based, human
# Method: NSCLC A549 cells were treated with 100 μM CDDP, 75 μM C2-CER or 100 μM CdCl2 for 12 h, or with 50 μM CDDP, C2-CER or CdCl2 for 24 h. Thereafter, cells were collected and lysed for RNA extraction of following established procedures {de La Motte Rouge, 2007}. mRNA expression changes were quantified on G4112A 44 k Whole Human Genome Oligo Microarrays (Agilent Technologies, Santa Clara, USA), as previously reported {Castedo, 2006}. mRNA microarrays underwent standardized post-hybridization processing, image acquisition and analysis (see below) {Castedo, 2006}.
# Data from microarray experiments were analyzed with the Rosetta Resolver® System (Rosetta Biosoftware, Seattle, USA). The threshold for statistical significance of probe signals (Intensity) was set at p=10^−5. […] For each mRNA, fold change (FC) was then defined as Intensitysample/Intensitycontrol when Intensitysample>Intensitycontrol, or as—(Intensitycontrol/Intensitysample) when Intensitysample<Intensitycontrol. Ratios were calculated as Intensitysample/Intensitycontrol.
# [1] = 12 h, 100 μM CDDP, 75 μM C2-CER or 100 μM CdCl2, vs untreated cells
# [2] = 24 h, 50 μM CDDP, C2-CER or CdCl2, vs untreated cells
smiles,measurement,setting,value
"N.N.[Cl][Pt][Cl] [CDDP, cis-diammineplatinum(II) dichloride]","Fold change, ADAR (NM_001111) transcript",[1],n.s.
same,"Fold change, ALDH7AT (NM_001182) transcript",[1],n.s.
same,"Fold change, CD151 (NM_004357) transcript",[1],n.s.
same,"Fold change, CLIC1 (NM_001288) transcript",[1],n.s.
same,"Fold change, COMMO9 (NM_014186) transcript",[1],n.s.
same,"Fold change, COX5B (NM_001802) transcript",[1],n.s.
same,"Fold change, COX7C (NM_001867) transcript",[1],n.s.
same,"Fold change, DHRSX (NM_145177) transcript",[1],−1.94
same,"Fold change, EBP (NM_006579) transcript",[1],n.s.
same,"Fold change, EEF2 (NM_001901) transcript",[1],1.36
same,"Fold change, FDXK (NM_003681) transcript",[1],−1.77
same,"Fold change, FN3KRP (NM_024619) transcript",[1],1.33
same,"Fold change, HDLBP (NM_005336) transcript",[1],n.s.
same,"Fold change, HGD (NM_000187) transcript",[1],−1.68
same,"Fold change, IL6R (NM_000565) transcript",[1],n.s.
same,"Fold change, KHSRP (NM_003685) transcript",[1],n.s.
same,"Fold change, LOC389727 (NM_372092) transcript",[1],n.s.
same,"Fold change, MAT2A (NM_005911) transcript",[1],−1.97
same,"Fold change, MOL1 (NM_021960) transcript",[1],2.48
same,"Fold change, MPP6 (NM_016447) transcript",[1],n.s.
same,"Fold change, OSTCL (NM_145303) transcript",[1],n.s.
same,"Fold change, P5MC5 (NM_002805) transcript",[1],n.s.
same,"Fold change, PLK1S1 (NM_018474) transcript",[1],n.s.
same,"Fold change, PPM1J (NM_005167) transcript",[1],1.63
same,"Fold change, RNF26 (NM_032015) transcript",[1],n.s.
same,"Fold change, RRAD (NM_004185) transcript",[1],6.59
same,"Fold change, SEMA3G (NM_000379) transcript",[1],−1.58
same,"Fold change, SLC22A16AS (NM_007105) transcript",[1],−1.36
same,"Fold change, SOCS6 (NM_004232) transcript",[1],−1.28
same,"Fold change, TMED1 (NM_006858) transcript",[1],1.35
same,"Fold change, TRIP4 (NM_016213) transcript",[1],−1.64
same,"Fold change, UBE2L3 (NM_003347) transcript",[1],−1.76
same,"Fold change, UBE21 (NM_014176) transcript",[1],n.s.
same,"Fold change, W282 (NM_018029) transcript",[1],n.s.
same,"Fold change, ADAR (NM_001111) transcript",[2],n.s.
same,"Fold change, ALDH7AT (NM_001182) transcript",[2],1.62
same,"Fold change, CD151 (NM_004357) transcript",[2],−2.13
same,"Fold change, CLIC1 (NM_001288) transcript",[2],n.s.
same,"Fold change, COMMO9 (NM_014186) transcript",[2],n.s.
same,"Fold change, COX5B (NM_001802) transcript",[2],n.s.
same,"Fold change, COX7C (NM_001867) transcript",[2],n.s.
same,"Fold change, DHRSX (NM_145177) transcript",[2],−5.40
same,"Fold change, EBP (NM_006579) transcript",[2],n.s.
same,"Fold change, EEF2 (NM_001901) transcript",[2],−1.31
same,"Fold change, FDXK (NM_003681) transcript",[2],−1.44
same,"Fold change, FN3KRP (NM_024619) transcript",[2],1.25
same,"Fold change, HDLBP (NM_005336) transcript",[2],n.s.
same,"Fold change, HGD (NM_000187) transcript",[2],−1.50
same,"Fold change, IL6R (NM_000565) transcript",[2],n.s.
same,"Fold change, KHSRP (NM_003685) transcript",[2],−2.00
same,"Fold change, LOC389727 (NM_372092) transcript",[2],n.s.
same,"Fold change, MAT2A (NM_005911) transcript",[2],n.s.
same,"Fold change, MOL1 (NM_021960) transcript",[2],n.s.
same,"Fold change, MPP6 (NM_016447) transcript",[2],n.s.
same,"Fold change, OSTCL (NM_145303) transcript",[2],n.s.
same,"Fold change, P5MC5 (NM_002805) transcript",[2],n.s.
same,"Fold change, PLK1S1 (NM_018474) transcript",[2],n.s.
same,"Fold change, PPM1J (NM_005167) transcript",[2],n.s.
same,"Fold change, RNF26 (NM_032015) transcript",[2],n.s.
same,"Fold change, RRAD (NM_004185) transcript",[2],3.75
same,"Fold change, SEMA3G (NM_000379) transcript",[2],n.s.
same,"Fold change, SLC22A16AS (NM_007105) transcript",[2],−1.34
same,"Fold change, SOCS6 (NM_004232) transcript",[2],n.s.
same,"Fold change, TMED1 (NM_006858) transcript",[2],n.s.
same,"Fold change, TRIP4 (NM_016213) transcript",[2],n.s.
same,"Fold change, UBE2L3 (NM_003347) transcript",[2],n.s.
same,"Fold change, UBE21 (NM_014176) transcript",[2],n.s.
same,"Fold change, W282 (NM_018029) transcript",[2],1.30
